# Results from patent publication US20260335294A1, “TREATING CONGENITAL DISORDERS OF GLYCOSYLATION” (Mayo Foundation for Medical Education and Research, priority 2022, published 2026).
# Marks after values point to notes of the source that are not given here.
# Columns and labels:
# aldose reductase (AR) = settings: role: inhibitor; cited from earlier work
# [1] = tested on: patient fibroblasts and healthy controls; assay: Quantification of NADPH and NADP; assay type: cell-based, human; settings: 10 μM, 24 h
# Method: Fibroblasts from three patient fibroblasts (P2, P4, P5) and two healthy controls were plated on day 1. The next day medium was changed. The cells were grown in the presence and absence of […] epalrestat for another 24 hours. The medium was then removed, cells were washed with cold saline solution (0.9% NaCl) and 250 μL of extraction buffer (50% MeOH, 30% acetonitrile, 20% H2O Tris-HCl pH 7.6) was added to the cells. The metabolites were precipitated overnight at −80 °C, samples were centrifugated at 20,000 rpm, 20 minutes, 4 °C, and supernatant was transferred to a fresh vial. Pellets were used for determination of protein concentration. Supernatant containing metabolites was analyzed by LC/MS less than 24 hours after the initial collection to avoid degradation of NADPH into NADP. Relative abundance of NADP and NADPH was obtained. […]
# pmm2 mutant zebrafish = assay: Zebrabox motility assay; assay type: in vivo
# Method: Zebrabox Motility Assay Progeny of a pmm2^sa1050/+ (pmm2^m/+) mating were collected and raised in the light following standard protocols. […] Embryos were also fed a small number of rotifers daily once behavioral readings were completed. Locomotor activity (swim paths, speeds) was monitored for ten-minute intervals from 6-10 dpf using the Zebrabox System (ViewPoint Inc., Toronto, Canada). Data was analyzed and graphed using GraphPad Prism.
# Then, both wt and pmm2 mutant zebrafish were treated with 20 µM daily epalrestat, which increased the distance swam and the number of swim events initiated in the pmm2 mutant zebrafish (FIG. 5 C,D). The improvement was most significant at 6 dpf and 7 dpf (FIG. 5 C,D).
# PMM2-CDG fibroblasts = settings: cited from earlier work
# PMM2-CDG patients [2] = assay: Anti-thrombin III (ATIII) in patients on epalrestat; assay type: in vivo, human; settings: for AT III: C: 0.80-1.30
# Text: (§1) The primary objective of the study was to assess the efficacy and safety of epalrestat treatment in 3 PMM2-CDG pediatric subjects prior to a planned Phase III clinical trial (Oral epalrestat therapy in Pediatric Subjects with PMM2-CDG, NCT04925960). The secondary objective was to assess the ability of epalrestat to improve clinically relevant aspects of PMM2-CDG such as increased urine polyols (sorbitol, mannitol), abnormal glycosylation (carbohydrate deficient transferrin), abnormal coagulation (ATIII=antithrombin III), impaired liver function (ALT=Alanine Transaminase, AST=Aspartate Transaminase), neurologic function (Brief Ataxia Rating Scale=BARS), severity of phenotype (Nijmegen Pediatric CDG Rating Scale=NPCRS). The ability of epalrestat to inhibit polyol production was monitored by evaluating urine polyol levels (sorbitol, mannitol), which are elevated in PMM2-CDG. Next, carbohydrate deficient transferrin, which is abnormal in PMM2-CDG, was evaluated in order to assess improvement of glycosylation following epalrestat treatment. CDT mono-oligo/dioligo ratio and a-oligo/dioligo ratio are used to evaluate glycosylation abnormalities. Transferrin normally occurs with two glycan chains (di-oligo). In the case of glycosylation abnormalities, glycan chains are missing (A-oligo transferrin has no glycan chains, mono-oligo has one glycan chain, di-oligo has two glycan chains). The higher ratio of a-oligo/di-oligo and mono-oligo/di-oligo indicate glycosylation abnormalities are present. Therefore, improvement in a-oligo/di-oligo and mono-oligo/di-oligo ratios can be used to monitor improvement or worsening of glycosylation status. Changes in the liver enzymes AST, ALT, which are frequently elevated in PMM2-CDG, were monitored both as part of a safety study and as part of monitoring clinical improvement in coagulation. Neurologic improvement was assessed by modified BARS scores in 2 patients (3rd patient was not eligible for the test due to age at the start of the trial). NPCRS was assessed at every visit to assess changes in the severity of the patients' phenotype. Additionally, the frequency of adverse events, changes in vital signs, complete blood count, and changes in BMI were monitored.
# (§2) Two patients were started on epalrestat on single patient investigational new drug (IND) (P5 IRB: 19-010017; IND #145262; P6 Protocol PMM2-CDG-001/A). Epalrestat was initiated on the parents' own initiative in the third patient (P7). Two patients were in their second year of epalrestat treatment, while the third, was in the 3rd year of treatment. Physical, neurological, and biochemical examinations were performed in 3 PMM2-CDG patients at baseline, and at every three months after the start of the epalrestat treatment. Patients underwent NPCRS phenotype severity assessment and biological sampling at every visit. Epalrestat (Ono Pharmaceuticals, Osaka, Japan) was taken orally 3 times per day (TID) before meals in a divided dose, with dosage escalation throughout the treatment. The pharmacological profile of epalrestat was as described elsewhere (Ligezka et al, Ann. Neurol., 90(6):887-900 (2021)). The starting dosage in P5 and P6 was 0.8 mg/kg/day, while P7 was started on 0.5 mg/kg/day due to their young age. P7 dosage was increased to 0.8 mg/day after a month, once safety was established. Blood and urine samples were collected routinely. […]
# PMM2-CDG = settings: Ligezka et al 2021; cited from earlier work
# PMM2-CDG patients [3] = assay: Urine polyols (sorbitol, mannitol) in patients on epalrestat; assay type: in vivo, human; settings: for Urine Sorbitol: normal <5; for Urine Mannitol: normal < 20
# Text: as §1
# as §2, with “routinely. Urine polyols, carbohydrate deficient transferrin (CDT), anti-thrombin III (ATIII), liver enzymes (ALT, AST), and complete blood count (CBC) were performed. Modified Brief Ataxia Rating Scale was used to assess ataxia in the 2 patients (P5, P6; P7 was not eligible for the test due to age). The modified BARS scale included Archimedes spiral test, but not the abnormalities of the ocular pursuit system and the scale range was 0-54. Goal attainment scale (GAS) was administered as described per study protocol (ClinicalTrials.gov Identifier: NCT04199000).” for “routinely.”
# [4] = 20 μM daily (printed 20 M), pmm2 mutant
# [5] = P6, Baseline column: first available results 3 months after starting treatment, 0.8 mg/kg day
smiles,measurement,setting,value
CC(/C=C1\SC(=S)N(CC(=O)O)C1=O)=C\c1ccccc1 [epalrestat],mode of inhibition of AR,aldose reductase (AR),non-competitive inhibitor
same,NADP abundance,[1],decreased
same,NADPH abundance,[1],increased
same,NADPH/NADP ratio,"[1]; PMM2-CDG n=3, control n=2",increased
same,swimming behavior,"pmm2 mutant zebrafish; 10 μM daily, wt and pmm2 mutant",no improvement in swimming behavior
same,distance swam,pmm2 mutant zebrafish; [4],increased
same,number of swim events initiated,pmm2 mutant zebrafish; [4],significantly increased
same,swimming distance at 6 dpf and 7 dpf,"pmm2 mutant zebrafish; 20 μM daily, pmm2 zebrafish, wt n=42-46, pmm2 n=22-51",significantly increased
same,overall glycosylation as assessed by glycoproteomics,PMM2-CDG fibroblasts; PMM2-CDG fibroblasts,overall glycosylation improvement
same,glycosylation in vitro,"PMM2-CDG fibroblasts; PMM2-CDG, Ligezka et al 2021",improved glycosylation
same,AT III,"PMM2-CDG patients [2]; P5, 12 months, 1.5 mg/kg day, baseline 0.88",0.99 IU/mL
same,AT III,"PMM2-CDG patients [2]; P5, 24 months, 2 mg/kg day, baseline 0.88",0.97 IU/mL
same,coagulation parameters (ATIII),"PMM2-CDG patients [2]; P5-P7, words",improvement
same,AT III,"PMM2-CDG patients [2]; P6, 18 months, 3 mg/kg day, baseline 0.25",0.39 IU/mL
same,AT III,"PMM2-CDG patients [2]; P7, 12 months, 1.5 mg/kg day, baseline 0.21",0.37 IU/mL
same,glycosylation in vivo,PMM2-CDG,improved glycosylation
same,Urine Sorbitol,"PMM2-CDG patients [3]; P5, 12 months, 1.5 mg/kg day, baseline 19.9",10.7 mmol/mol Cr
same,Urine Mannitol,"PMM2-CDG patients [3]; P5, 12 months, 1.5 mg/kg day, baseline 648.6",32.6 mmol/mol Cr
same,Urine Sorbitol,"PMM2-CDG patients [3]; P5, 24 months, 2 mg/kg day, baseline 19.9",7.5 mmol/mol Cr
same,Urine Mannitol,"PMM2-CDG patients [3]; P5, 24 months, 2 mg/kg day, baseline 648.6",45.3 mmol/mol Cr
same,Urine Sorbitol,"PMM2-CDG patients [3]; P5, 28 months, 3 mg/kg day, baseline 19.9",7.86 mmol/mol Cr
same,Urine Mannitol,"PMM2-CDG patients [3]; P5, 28 months, 3 mg/kg day, baseline 648.6",93.19 mmol/mol Cr
same,urine mannitol during treatment,"PMM2-CDG patients [3]; P5, underwent a fructose loading test",A fluctuation in mannitol
same,urine polyol levels,"PMM2-CDG patients [3]; P5-P7, words",decreased
same,urine polyol levels during treatment,"PMM2-CDG patients [3]; P5-P7, words",remained mostly stable
same,Urine Sorbitol,"PMM2-CDG patients [3]; P6, 12 months, 1.5 mg/kg day",12.81 mmol/mol Cr
same,Urine Mannitol,"PMM2-CDG patients [3]; P6, 12 months, 1.5 mg/kg day",14.77 mmol/mol Cr
same,Urine Sorbitol,"PMM2-CDG patients [3]; P6, 18 months, 3 mg/kg day",9 mmol/mol Cr
same,Urine Mannitol,"PMM2-CDG patients [3]; P6, 18 months, 3 mg/kg day",47 mmol/mol Cr
same,Urine Sorbitol,PMM2-CDG patients [3]; [5],50.80# mmol/mol Cr
same,Urine Mannitol,PMM2-CDG patients [3]; [5],23.90# mmol/mol Cr
same,Urine Sorbitol,"PMM2-CDG patients [3]; P7, 12 months, 1.5 mg/kg day, baseline 9.85",0.03 mmol/mol Cr
same,Urine Mannitol,"PMM2-CDG patients [3]; P7, 12 months, 1.5 mg/kg day, baseline 10.37",1.89 mmol/mol Cr
